The target in this assay is T1, AFV3-109 (Betalipothrixvirus acidiani, UniProt A7WKA5).
T1 construct: homodimer in solution and crystal
Put plainly: tryptophan fluorescence quenching titration. To be noted: read-out: KDapp. Type of assay: binding.

SMILES strings stand for the structures.

In the case of `OCC(O)CO` [glycerol], the Kd worked out at 1.7 µM.

Values taken from article PMC1796864, “Crystal structure of AFV3-109, a highly conserved protein from crenarchaeal viruses” (Virology Journal, 2007).
